Target: T1, MD-2 (TLR4/MD-2 complex) (Homo sapiens, UniProt Q9Y6Y9)
T1 construct: gene LY96; MD2 Glu17—Asn160 + 10-His Tag, co-expressed with TLR4 ectodomain Glu24—Lys631 + 10-His Tag; with TLR4 (O00206), ectodomain Glu24—Lys631
Experiment: isothermal titration calorimetry of PA into recombinant human TLR4/MD-2 ([…]°C)
Format: binding

T1 sequence (Q9Y6Y9 17-160): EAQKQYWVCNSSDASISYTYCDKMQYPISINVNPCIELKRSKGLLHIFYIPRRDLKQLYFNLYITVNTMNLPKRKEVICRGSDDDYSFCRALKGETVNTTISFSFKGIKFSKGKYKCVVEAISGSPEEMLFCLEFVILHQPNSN
T1 sequence (O00206 24-631 partner): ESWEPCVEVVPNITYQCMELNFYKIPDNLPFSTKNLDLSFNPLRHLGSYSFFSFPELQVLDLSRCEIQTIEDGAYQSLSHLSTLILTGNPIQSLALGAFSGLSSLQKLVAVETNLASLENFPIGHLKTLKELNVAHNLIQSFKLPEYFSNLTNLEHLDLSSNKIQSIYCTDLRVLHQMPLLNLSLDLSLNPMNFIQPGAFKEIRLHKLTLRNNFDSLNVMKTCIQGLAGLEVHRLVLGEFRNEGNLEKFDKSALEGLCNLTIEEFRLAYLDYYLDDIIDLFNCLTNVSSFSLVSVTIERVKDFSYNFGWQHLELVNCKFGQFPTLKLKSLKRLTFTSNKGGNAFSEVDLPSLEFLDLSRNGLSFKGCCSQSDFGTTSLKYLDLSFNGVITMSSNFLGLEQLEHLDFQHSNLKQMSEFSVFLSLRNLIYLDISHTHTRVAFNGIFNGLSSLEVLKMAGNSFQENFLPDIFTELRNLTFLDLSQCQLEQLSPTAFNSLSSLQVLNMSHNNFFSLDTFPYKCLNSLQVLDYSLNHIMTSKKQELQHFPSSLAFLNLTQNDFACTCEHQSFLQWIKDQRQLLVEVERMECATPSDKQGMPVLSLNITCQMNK

Kd: 2300 nM
Compound: CCCCCCCCCCCCCCCC(=O)O [PA, palmitic acid]
